Test results taken from PubChem BioAssay AID2060492 (Molecular Pharmacology Branch, DTP, NCI, 2025).

System: 695427-040-R-J1-PDC complex spheroids, viability percent T/C
Test: Anticancer human tumor 695427-040-R-J1-PDC patient-derived colon adenocarcinoma cell line growth inhibition [GQUAD]
Settings: for IC50: curve of first compound; for viability, T/C: stronger effect = lower value
Summary of the method: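 Viability of tumor cells grown as complex spheroids with endothelial and stromal cells, exposed to drug combinations. Top concentration at or near clinical Cmax (else 10 microM), diluted in half-log increments.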

[1] = second compound 0.0316 µM, first compound 0.0316 µM
[2] = second compound 0.0316 µM, first compound 0.1 µM
[3] = second compound 0.0316 µM, first compound 0.316 µM
[4] = second compound 0.0316 µM, first compound 1 µM
[5] = second compound 0.0316 µM, first compound 3.16 µM
[6] = second compound 0.0316 µM, first compound 10 µM
[7] = second compound 0.1 µM, first compound 0.0316 µM
[8] = second compound 0.1 µM, first compound 0.1 µM
[9] = second compound 0.1 µM, first compound 0.316 µM
[10] = second compound 0.1 µM, first compound 1 µM
[11] = second compound 0.1 µM, first compound 3.16 µM
[12] = second compound 0.1 µM, first compound 10 µM
[13] = second compound 0.316 µM, first compound 0.0316 µM
[14] = second compound 0.316 µM, first compound 0.1 µM
[15] = second compound 0.316 µM, first compound 0.316 µM
[16] = second compound 0.316 µM, first compound 1 µM
[17] = second compound 0.316 µM, first compound 3.16 µM
[18] = second compound 0.316 µM, first compound 10 µM
[19] = second compound 1 µM, first compound 0.0316 µM
[20] = second compound 1 µM, first compound 0.1 µM
[21] = second compound 1 µM, first compound 0.316 µM
[22] = second compound 1 µM, first compound 1 µM
[23] = second compound 1 µM, first compound 3.16 µM
[24] = second compound 1 µM, first compound 10 µM
[25] = second compound 3.16 µM, first compound 0.0316 µM
[26] = second compound 3.16 µM, first compound 0.1 µM
[27] = second compound 3.16 µM, first compound 0.316 µM
[28] = second compound 3.16 µM, first compound 1 µM
[29] = second compound 3.16 µM, first compound 3.16 µM
[30] = second compound 3.16 µM, first compound 10 µM
[31] = second compound 10 µM, first compound 0.0316 µM
[32] = second compound 10 µM, first compound 0.1 µM
[33] = second compound 10 µM, first compound 0.316 µM
[34] = second compound 10 µM, first compound 1 µM
[35] = second compound 10 µM, first compound 3.16 µM
[36] = second compound 10 µM, first compound 10 µM
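Note: spheroids exposed to compounds for seven days before readout.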

## COc1ncnc(C2CC2)c1-c1ncc2cnn(Cc3ccc(-c4nc(C(F)(F)F)cn4C(C)C)cc3)c2n1 + CN(C)c1ccc(Nc2c3ccc(NC(=O)CCN4CCCC4)cc3nc3cc(NC(=O)CCN4CCCC4)ccc23)cc1
Second compound 0.0316 µM
  IC50: > 10 µM
Second compound 0.1 µM
  IC50: > 10 µM
Second compound 0.316 µM
  IC50: > 10 µM
Second compound 1 µM
  IC50: > 10 µM
Second compound 3.16 µM
  IC50: > 10 µM
Second compound 10 µM
  IC50: > 10 µM
[1]
  viability, T/C: 101%
[2]
  viability, T/C: 92.4%
[3]
  viability, T/C: 91.7%
[4]
  viability, T/C: 96.4%
[5]
  viability, T/C: 105%
[6]
  viability, T/C: 102%
[7]
  viability, T/C: 105%
[8]
  viability, T/C: 95.4%
[9]
  viability, T/C: 91.1%
[10]
  viability, T/C: 93.2%
[11]
  viability, T/C: 101%
[12]
  viability, T/C: 101%
[13]
  viability, T/C: 97.7%
[14]
  viability, T/C: 97.5%
[15]
  viability, T/C: 88.9%
[16]
  viability, T/C: 94.3%
[17]
  viability, T/C: 96.1%
[18]
  viability, T/C: 83.1%
[19]
  viability, T/C: 96.7%
[20]
  viability, T/C: 93.7%
[21]
  viability, T/C: 91.5%
[22]
  viability, T/C: 91.3%
[23]
  viability, T/C: 101%
[24]
  viability, T/C: 93.3%
[25]
  viability, T/C: 93.9%
[26]
  viability, T/C: 91.7%
[27]
  viability, T/C: 84.9%
[28]
  viability, T/C: 96.6%
[29]
  viability, T/C: 99%
[30]
  viability, T/C: 92.9%
[31]
  viability, T/C: 83.3%
[32]
  viability, T/C: 80.6%
[33]
  viability, T/C: 85.5%
[34]
  viability, T/C: 80.8%
[35]
  viability, T/C: 79.7%
[36]
  viability, T/C: 75%

## CC(C)n1c(=O)n(C)c2cnc3cc(F)c(-c4ccc(OCCCN5CCCCC5)nc4)cc3c21 + Cc1[nH]c2ccc(F)cc2c1-c1nc2c3cccnc3c3ncccc3c2[nH]1
Second compound 0.0316 µM
  IC50: > 10 µM
Second compound 0.1 µM
  IC50: > 10 µM
Second compound 0.316 µM
  IC50: > 10 µM
Second compound 1 µM
  IC50: 9.84 µM
Second compound 3.16 µM
  IC50: > 10 µM
Second compound 10 µM
  IC50: 7.23 µM
[1]
  viability, T/C: 116%
[2]
  viability, T/C: 92.2%
[3]
  viability, T/C: 116%
[4]
  viability, T/C: 74.3%
[5]
  viability, T/C: 93.5%
[6]
  viability, T/C: 65.4%
[7]
  viability, T/C: 101%
[8]
  viability, T/C: 97.2%
[9]
  viability, T/C: 128%
[10]
  viability, T/C: 91.7%
[11]
  viability, T/C: 94.3%
[12]
  viability, T/C: 58.8%
[13]
  viability, T/C: 102%
[14]
  viability, T/C: 120%
[15]
  viability, T/C: 96.4%
[16]
  viability, T/C: 98.7%
[17]
  viability, T/C: 99.2%
[18]
  viability, T/C: 61.3%
[19]
  viability, T/C: 84.2%
[20]
  viability, T/C: 106%
[21]
  viability, T/C: 111%
[22]
  viability, T/C: 109%
[23]
  viability, T/C: 106%
[24]
  viability, T/C: 49.1%
[25]
  viability, T/C: 86.8%
[26]
  viability, T/C: 85%
[27]
  viability, T/C: 94.8%
[28]
  viability, T/C: 96.2%
[29]
  viability, T/C: 92.2%
[30]
  viability, T/C: 50.3%
[31]
  viability, T/C: 61.7%
[32]
  viability, T/C: 83%
[33]
  viability, T/C: 95.5%
[34]
  viability, T/C: 80.9%
[35]
  viability, T/C: 87.1%
[36]
  viability, T/C: 37.6%

## CC1COCCN1c1cc(C2(S(C)(=N)=O)CC2)nc(-c2ccnc3[nH]ccc23)n1 (stereo unspecified) + Cc1[nH]c2ccc(F)cc2c1-c1nc2c3cccnc3c3ncccc3c2[nH]1
Second compound 0.0316 µM
  IC50: > 10 µM
Second compound 0.1 µM
  IC50: > 10 µM
Second compound 0.316 µM
  IC50: > 10 µM
Second compound 1 µM
  IC50: > 10 µM
Second compound 3.16 µM
  IC50: > 10 µM
Second compound 10 µM
  IC50: > 10 µM
[1]
  viability, T/C: 99.3%
[2]
  viability, T/C: 101%
[3]
  viability, T/C: 87.6%
[4]
  viability, T/C: 73.9%
[5]
  viability, T/C: 76.9%
[6]
  viability, T/C: 57.4%
[7]
  viability, T/C: 103%
[8]
  viability, T/C: 72.5%
[9]
  viability, T/C: 102%
[10]
  viability, T/C: 89.3%
[11]
  viability, T/C: 73.2%
[12]
  viability, T/C: 62.2%
[13]
  viability, T/C: 87.9%
[14]
  viability, T/C: 80.1%
[15]
  viability, T/C: 84.8%
[16]
  viability, T/C: 84.9%
[17]
  viability, T/C: 74.6%
[18]
  viability, T/C: 61.5%
[19]
  viability, T/C: 70.5%
[20]
  viability, T/C: 71.7%
[21]
  viability, T/C: 70.3%
[22]
  viability, T/C: 97%
[23]
  viability, T/C: 83%
[24]
  viability, T/C: 65.8%
[25]
  viability, T/C: 61.9%
[26]
  viability, T/C: 84%
[27]
  viability, T/C: 75.9%
[28]
  viability, T/C: 81.8%
[29]
  viability, T/C: 71.9%
[30]
  viability, T/C: 61.2%
[31]
  viability, T/C: 66%
[32]
  viability, T/C: 67.9%
[33]
  viability, T/C: 80.8%
[34]
  viability, T/C: 82%
[35]
  viability, T/C: 67.6%
[36]
  viability, T/C: 54.3%
